The test system of experiment [1] is NCI-H1373. Description: Induction of TRAIL dependent apoptosis in human NCI-H1373 cells by annexin V-PI staining based flow cytometric analysis. Format: functional, cell-based. For orientation: A flow cytometer gives signals particle by particle.
The subject of experiment [2] is NCI-H460. Put plainly: Downregulation of XIAP protein expression level in human NCI-H460 cells at 1 uM for 24 hrs by […] analysis. Format: functional, cell-based. On the technique in general: In qPCR the cycle at which signal appears reflects the starting amount.
The next experiment relates to NCI-H358. Put plainly: Downregulation of XIAP protein expression level in human NCI-H358 cells at 1 uM for 24 hrs by […] analysis. Format: functional, cell-based.
Experiment [3] has as its system DV-90. Description: Induction of cell cycle arrest in human DV-90 cells assessed as accumulation of cells at G2/M phase at 0.25 uM for 24 hrs by Click-iT EdU Alexa Fluor 647 flow cytometric assay kit analysis (reference value: 24%). Format: functional.
The test system of experiment [4] is NCI-H1373. Description: Downregulation of c-MYC protein level in human NCI-H1373 cells 1 uM by Western blot analysis. Format: functional, cell-based. The note with it: time <= 24.0 hrs, TDE = time-dependent effect.
For experiment [5], the system named is A549. Put plainly: Induction of cell cycle arrest in human A549 cells assessed as accumulation of cells at S phase at 0.25 uM for 24 hrs by Click-iT EdU Alexa Fluor 647 flow cytometric assay kit analysis (reference value: 35%). It is filed as functional.
Experiment [6] has as its system NCI-H1373. Put plainly: Induction of TRAIL dependent apoptosis in human NCI-H1373 cells assessed as viable cells at 1 uM by annexin V-PI staining based flow cytometric analysis (reference value: 87.6%). The note with it: read-out: Activity. Format: functional.
Experiment [7] concerns LCLC-97TM1. Put plainly: Downregulation of XIAP mRNA expression level in human LCLC-97TM1 cells at 0.1 to 1 uM for 24 hrs by qRT-PCR analysis. It is filed as functional, cell-based. The following applies: dose 0.1-1 µM.
The test system of experiment [8] is A549. Description: Induction of apoptosis in human A549 cells assessed as viable cells at 1 uM in presence of cisplatin by annexin V-PI based flow cytometric analysis (reference value: 95.7%). Format: functional. The note with it: read-out: Activity.
The subject of experiment [9] is NCI-H460. Put plainly: Induction of apoptosis in human NCI-H460 cells assessed as viable cells at 2.5 uM for 24 hrs by annexin V-PI staining based flow cytometric analysis (reference value: 94%). It is filed as functional. The following applies: read-out: Activity.
The test system of another experiment is NCI-H1792. Put plainly: Downregulation of FLIP mRNA expression level in human NCI-H1792 cells at 0.1 to 1 uM for 24 hrs by qRT-PCR analysis. It is filed as functional, cell-based. The note with it: dose 0.1-1 µM.
Experiment [10] concerns A549. Put plainly: Induction of cell cycle arrest in human A549 cells assessed as accumulation of cells at G2/M phase at 1 uM for 24 hrs by Click-iT EdU Alexa Fluor 647 flow cytometric assay kit analysis (reference value: 3%). Format: functional.
For experiment [11], the system named is DV-90. Put plainly: Induction of apoptosis in human DV-90 cells assessed as late apoptotic cells at 0.5 uM for 24 hrs by annexin V-PI staining based flow cytometric analysis (reference value: 11.4%). It is filed as functional.
Another experiment deals with NCI-H2347. Description: Downregulation of c-MYC mRNA expression level in human NCI-H2347 cells at 0.1 to 1 uM for 24 hrs by qRT-PCR analysis. Format: functional, cell-based. The following applies: dose 0.1-1 µM.
The test system of experiment [12] is A549. Put plainly: Induction of apoptosis in human A549 cells assessed as late apoptotic cells at 1 uM by annexin V-PI based flow cytometric analysis (reference value: 2.5%). Format: functional.
Experiment [13] concerns NCI-H1373. Description: Induction of cell cycle arrest in human NCI-H1373 cells assessed as accumulation of cells at G0/G1 phase at 0.25 uM for 24 hrs by Click-iT EdU Alexa Fluor 647 flow cytometric assay kit analysis (reference value: 40%). Format: functional.
The subject of experiment [14] is DV-90. Put plainly: Induction of apoptosis in human DV-90 cells assessed as late apoptotic cells at 2.5 uM for 24 hrs by annexin V-PI staining based flow cytometric analysis (reference value: 11.4%). It is filed as functional.
Experiment [15] relates to DV-90. Description: Induction of apoptosis in human DV-90 cells assessed as necrotic cells at 0.5 uM for 24 hrs by annexin V-PI staining based flow cytometric analysis (reference value: 5.4%). Format: functional.
In experiment [16] the test system is NCI-H2030. Put plainly: Downregulation of XIAP mRNA expression level in human NCI-H2030 cells at 0.1 to 1 uM for 24 hrs by qRT-PCR analysis. Format: functional, cell-based. The note with it: dose 0.1-1 µM.
Experiment [17] relates to DV-90. Description: Induction of cell cycle arrest in human DV-90 cells assessed as accumulation of cells at G2/M phase at 1 uM for 24 hrs by Click-iT EdU Alexa Fluor 647 flow cytometric assay kit analysis (reference value: 24%). Format: functional.
The test system of experiment [18] is NCI-H2030. Put plainly: Downregulation of c-MYC protein level in human NCI-H2030 cells at 100 to 5000 nM upto 24 hrs by Western blot analysis. Format: functional, cell-based. The note with it: dose 100-5000 nM.
The test system of another experiment is SK-LU-1. Put plainly: Downregulation of c-MYC protein expression level in human SK-LU-1 cells at 1 uM for 24 hrs by […] analysis. It is filed as functional, cell-based.
The test system of experiment [19] is LCLC-97TM1. Description: Downregulation of FLIP mRNA expression level in human LCLC-97TM1 cells at 0.1 to 1 uM for 24 hrs by qRT-PCR analysis. The note with it: dose 0.1-1 µM. It is filed as functional, cell-based.
Experiment [20] deals with DV-90. Put plainly: Induction of cell cycle arrest in human DV-90 cells assessed as accumulation of cells at G2/M phase at 0.5 uM for 24 hrs by Click-iT EdU Alexa Fluor 647 flow cytometric assay kit analysis (reference value: 24%). Format: functional.
The subject of experiment [21] is LCLC-97TM1. Description: Downregulation of c-MYC mRNA expression level in human LCLC-97TM1 cells at 0.1 to 1 uM for 24 hrs by qRT-PCR analysis. It is filed as functional, cell-based. The note with it: dose 0.1-1 µM.
Experiment [22] relates to A549. Put plainly: Induction of apoptosis in human A549 cells assessed as necrotic cells at 0.5 uM for 24 hrs by annexin V-PI staining based flow cytometric analysis (reference value: 0.9%). It is filed as functional.
The subject of experiment [23] is NCI-H1373. Put plainly: Induction of apoptosis in human NCI-H1373 cells assessed as necrotic cells at 2.5 uM for 24 hrs by annexin V-PI staining based flow cytometric analysis (reference value: 4.4%). It is filed as functional.
The subject of experiment [24] is A549. Put plainly: Induction of apoptosis in human A549 cells assessed as early apoptotic cells at 0.5 uM for 24 hrs by annexin V-PI staining based flow cytometric analysis (reference value: 0.2%). It is filed as functional.
Experiment [25] has as its system NCI-H460. Put plainly: Induction of apoptosis in human NCI-H460 cells assessed as early apoptotic cells at 0.5 uM for 24 hrs by annexin V-PI staining based flow cytometric analysis (reference value: 0.3%). Format: functional.
For experiment [26], the system named is DV-90. Description: Induction of cell cycle arrest in human DV-90 cells assessed as accumulation of cells at G2/M phase at 0.5 uM for 24 hrs by Click-iT EdU Alexa Fluor 647 flow cytometric assay kit analysis (reference value: 21%). Format: functional.
Experiment [27] has as its system NCI-H1373. Description: Induction of cell cycle arrest in human NCI-H1373 cells assessed as accumulation of cells at G0/G1 phase at 1 uM for 24 hrs by Click-iT EdU Alexa Fluor 647 flow cytometric assay kit analysis (reference value: 48%). It is filed as functional.
Experiment [28] concerns NCI-H460. Description: Induction of cell cycle arrest in human NCI-H460 cells assessed as accumulation of cells at G0/G1 phase at 0.5 uM for 24 hrs by Click-iT EdU Alexa Fluor 647 flow cytometric assay kit analysis (reference value: 45%). It is filed as functional.
Experiment [29] has as its system NCI-H1373. Put plainly: Induction of cell cycle arrest in human NCI-H1373 cells assessed as accumulation of cells at G0/G1 phase at 0.25 uM for 24 hrs by Click-iT EdU Alexa Fluor 647 flow cytometric assay kit analysis (reference value: 48%). It is filed as functional.

From ChEMBL document CHEMBL5712891, “Inhibition of BET bromodomain-dependent XIAP and FLIP expression sensitizes KRAS-mutated NSCLC to pro-apoptotic agents” (Cell Death Dis, 2016) come the findings set out here.

Active and inactive are the calls of the source. The calls are words filed in the database; no cut-off is given here.

Regarding `Cc1sc2c(c1C)C(c1ccc(Cl)cc1)=N[C@@H](CC(=O)OC(C)(C)C)c1nnc(C)n1-2`, the result with NCI-H1373 [1], in the experiment with NCI-H460 [2], in the experiment with NCI-H358, with LCLC-97TM1 [7], in the experiment on NCI-H1792 and with NCI-H2347 was Active. Further, the outcome in the experiment on NCI-H2030 [16], in the experiment on SK-LU-1, with LCLC-97TM1 [19] and with LCLC-97TM1 [21] was Active. The Activity in the experiment with DV-90 [3] is 31%; with NCI-H1373 [4], “Tde”; with A549 [5], 33%; with A549 [10] it was 4%; in the experiment on DV-90 [11] it was 10.7%; in the experiment on A549 [12], 1.2%. Moreover, the Activity in the experiment on NCI-H1373 [13] came to 60%; with DV-90 [14], 16%; in the experiment on DV-90 [15] it was 25.4%; in the experiment on DV-90 [17], 27%; in the experiment with DV-90 [20] it was 30%. In addition, the viability at 1 µM is 64.4% in the experiment on NCI-H1373 [6] and 58.9% in the experiment on A549 [8]. Further, the viability at 2.5 µM with NCI-H460 [9] worked out at 90.4%. In addition, the result in the experiment with NCI-H2030 [18] was inactive.
For `Cc1sc2c(c1C)C(c1ccc(Cl)cc1)=N[C@@H](CC(=O)Nc1ccc(O)cc1)c1nnc(C)n1-2` [BIRABRESIB], the Activity is 0.7% in the experiment on A549 [22]; 21.4% in the experiment with NCI-H1373 [23]; 0.1% with A549 [24]; 0.2% with NCI-H460 [25]; 25% in the experiment with DV-90 [26].
For `CCNC(=O)C[C@@H]1N=C(c2ccc(Cl)cc2)c2cc(OC)ccc2-n2c(C)nnc21` [MOLIBRESIB], the Activity in the experiment on NCI-H1373 [27] is listed as 76%; with NCI-H460 [28] it was 51%; in the experiment with NCI-H1373 [29] it was 65%.
